# US7820594B2 (priority 2003, dated 2010)
# “And” between values parts separate entries of the source, which are not always exact repeats. Identical values can stand only once. Like-named read-outs stand apart in the source and are kept apart here.
# Legend:
# White mold [1] = assay: PDA plate inhibition, caprylic acid and organic acids (Example 13); format: cell-based
# Method: (§1) Potato dextrose agar (PDA) plates, +/−amendments, were inoculated with selected pathogens. There were several replicate plates used per treatment group (per pathogen tested). After incubation of plates at room temperature, fungal growth was measured.
# Botrytis cinerea [2] = assay: as above; format: cell-based
# Method: as §1
# Botrytis cinerea [3] = system: Botrytis cinerea
# White mold [4] = format: cell-based
# Late blight = format: cell-based
# Septoria = format: cell-based
structure (smiles),measurement,setting,value
"CCNCC.O=C(O)c1ccccc1O [0.010% diethylamine salicylate, diethylamine salicylate]",Inhibition (%) of white mold,White mold [1],7%
same,Inhibition (%) of Botrytis cinerea,Botrytis cinerea [2],0%
"O=C(O)C(O)C(O)C(=O)O (centres unmarked) [0.75% tartaric acid, tartaric acid]",Infected berries (% of total),Botrytis cinerea [3]; Day 2 after treatment,31%
same,Infected berries (% of total),Botrytis cinerea [3]; Day 3 after treatment,58%
"O=C(O)CO [0.0175% glycolic acid, glycolic acid]","Measurement of fungal growth, based on control plate (100%)",White mold [4],127% and 108%
same,"Measurement of fungal growth, based on control plate (100%)",Late blight; Day 2 after inoculum,79%
same,"Measurement of fungal growth, based on control plate (100%)",Late blight; Day 3 after inoculum,104%
same,"Measurement of fungal growth, based on control plate (100%)",Septoria,80% and 90%
